Assay results taken from ChEMBL document CHEMBL2380300, “Identification of new peptide amides as selective cathepsin L inhibitors: the first step towards selective irreversible inhibitors?” (Bioorg Med Chem Lett, 2013).

Legend:
[1] = organism: Homo sapiens; experiment: Selectivity ratio of Ka for recombinant cathepsin-L (unknown origin) to Ka for recombinant cathepsin-B (unknown origin)
[2] = biological target: Procathepsin L (Homo sapiens, UniProt P07711); experiment: Irreversible inhibition of recombinant cathepsin-L (unknown origin) using Z-Phe-Arg-AMC as substrate
Sequence of Procathepsin L (P07711 114-333 limits assumed): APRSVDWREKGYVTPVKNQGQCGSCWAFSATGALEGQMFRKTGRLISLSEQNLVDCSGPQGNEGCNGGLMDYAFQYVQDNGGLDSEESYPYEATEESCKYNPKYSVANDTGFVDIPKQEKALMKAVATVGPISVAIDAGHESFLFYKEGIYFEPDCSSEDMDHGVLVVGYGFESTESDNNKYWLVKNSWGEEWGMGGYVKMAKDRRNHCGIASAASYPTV

[3] = biological target: Cathepsin B (Homo sapiens, UniProt P07858); experiment: Irreversible inhibition of recombinant cathepsin-B (unknown origin) using Z-Arg-Arg-AMC as substrate

SMILES	Ratio [1]	Ka [2]	Ka [3]
Cc1cccc(C)c1C(=O)OCC(=O)[C@H](CCCCN)NC(=O)[C@H](Cc1ccccc1)NC(=O)OCc1ccccc1	7.8	2.96 ×10⁵ /s/M	0.38 ×10⁵ /s/M
Cc1cccc(C)c1C(=O)OCC(=O)[C@H](CCCCN)NC(=O)[C@H](Cc1ccccc1)NC(=O)[C@H](CC(C)C)NC(=O)OCc1ccccc1	2	2.69 ×10⁵ /s/M	1.36 ×10⁵ /s/M
Cc1cccc(C)c1C(=O)OCC(=O)[C@H](CCCCN)NC(=O)[C@H](Cc1ccccc1)NC(=O)[C@H](Cc1c[nH]c2ccccc12)NC(=O)OCc1ccccc1	6.9	3.92 ×10⁵ /s/M	0.57 ×10⁵ /s/M

Other lines, results leading:

Ratio [1]	Ka [2]	Ka [3]	SMILES
11.5	8.75 ×10⁵ /s/M	0.76 ×10⁵ /s/M	Cc1cccc(C)c1C(=O)OCC(=O)[C@H](CCCCN)NC(=O)[C@H](Cc1ccccc1)NC(=O)[C@H](CCCNC(=N)N)NC(=O)OCc1ccccc1
0.3	2.52 ×10⁵ /s/M	8.22 ×10⁵ /s/M	Cc1cccc(C)c1C(=O)OCC(=O)[C@H](CCCCN)NC(=O)[C@H](Cc1ccccc1)NC(=O)[C@H](CCCCN)NC(=O)OCc1ccccc1
